Measurements as given in EP4702986A1, “POLYPEPTIDE AND USE THEREOF” (Biocells (Beijing) Biotech Co., Ltd., priority 2023, dated 2024).
Like-named read-outs stand apart in the source and are kept apart here. Numbered stars: 1 amine (or outer) side, 2 acyl side, 3 side chain; on linkers, the order of the positions; unused ones are H or OH. Bridge positions count the residues as written; N and C are the ends. Side chains are listed from the residue outwards. Ends that are not written are not given here. Peptide text beside a SMILES is read from it. * marks the point of attachment. C18 diacid = O=C(O)CCCCCCCCCCCCCCCCC(=O)*; γGlu = O=C(O)[C@H](CCC(=O)[*:2])N[*:1]; Stearoyl = CCCCCCCCCCCCCCCCCC(=O)*; Fumaroyl = O=C(O)/C=C/C(=O)*; Suc = O=C(CCC(=O)[*:2])[*:1]; AEEA = NCCOCCOCC(=O)O

Legend:
[1] = Determination of half-lives of polypeptides (plasma, LC-MS); conditions: for half-life: C57 BL/6, mouse, plasma, iv; for AUClast 0-30 min: C57 BL/6 mice, dosage per compound 0.48, 0.96 or 1 mpk
human ETA receptor = molecular target: T1, human ETA receptor (Homo sapiens, UniProt P25101); assay: Selectivity of polypeptides on human ETA receptor (IP-One Gq kit, % of positive control ET1); assay type: cell-based
T1 construct: expressed in transfected cells; host or cells: 293T-17 cells, transient transfection
T1 sequence (P25101 21-427): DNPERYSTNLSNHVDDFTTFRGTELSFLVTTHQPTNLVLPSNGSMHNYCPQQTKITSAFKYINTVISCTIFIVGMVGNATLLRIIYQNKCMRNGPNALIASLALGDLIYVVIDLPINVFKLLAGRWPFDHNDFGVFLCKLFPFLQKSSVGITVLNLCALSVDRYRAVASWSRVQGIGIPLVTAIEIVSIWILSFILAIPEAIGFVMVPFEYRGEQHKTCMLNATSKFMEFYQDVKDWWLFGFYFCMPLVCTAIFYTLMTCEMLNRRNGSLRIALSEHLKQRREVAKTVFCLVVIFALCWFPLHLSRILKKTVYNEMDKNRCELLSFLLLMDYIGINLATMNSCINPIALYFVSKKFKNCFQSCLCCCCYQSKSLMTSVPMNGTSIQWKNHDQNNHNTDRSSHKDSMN
Protocol: 293T-17 cells were seeded at a density of 650,000 cells per well in a 6-well plate and cultured overnight in an incubator at 37°C and 5% CO2. Afterward, the cells were transfected with an expression vector, PCDNA3.1-hETA which contained a human ETA receptor gene, at a plasmid concentration of 2.5 µg per well. The cells were further cultured for 48 hours, and green fluorescence expression was observed under a fluorescence microscope. The cells were then digested with trypsin and counted. The activity of compounds on the human ETA receptor was determined with the IP-One Gq kit from Cisbio Bioassays. The cells were suspended in Stim Buffer provided in the kit and the cell suspension was added to a 96-well detection plate at 7 µL cell suspension (containing 30,000 cells) per well. The polypeptides to be screened for activity (prepared according to the Preparation Example of the invention) and polypeptide human endothelin ET1 as positive control were dissolved in Stim B to be at a concentration of 2×, and 7 µL was added to the test cells, while 7 µL of PBS solution was added to the cells in the negative control wells. Human endothelin ET1 (ET1: […] (C1-C15,C3-C11)) set forth in SEQ ID No. 85 was used as the positive control polypeptide. The plate was sealed and incubated at 37°C for 1 h in a cell culture incubator. Detection wells, positive control wells, and PBS control wells were each added with 3 µL of IP1 d2 working solution and 3 µL of IP1 Tb cryptotate Antibody working solution. The plate was sealed and incubated in the dark at room temperature (25°C±5°C) for 1 h. The plate seal was removed, and the […] at 665 nm and 620 nm was measured with an ID5 microplate reader. The ratio of the acceptor emission signal to the donor emission signal, i.e., the value of (signal at 665 nm/signal at 620 nm)×10^4, was calculated for each well. With F3 representing the average value of values of signal at 665 nm/signal at 620 nm determined for the test sample at a specific concentration, F5 representing the average value of values of signal at 665 nm/signal at 620 nm determined for the positive control human endothelin ET1 at the same concentration, and T3 representing the average value of values of signal at 665 nm/signal at 620 nm determined for the PBS negative control, the percentage of activity of the test polypeptide sample relative to the positive control sample ET1 = (F3-T3)×100/(F5-T3) (see Table 6). hETA sequence (NCBI accession number L06622.1).

human ETB receptor = molecular target: T2, human ETB receptor (Homo sapiens, UniProt P24530); assay: Screening of polypeptides for activity on human ETB receptor (IP-One Gq kit, % of positive control IRL1620); assay type: cell-based
T2 construct: expressed in transfected cells; host or cells: 293T-17 cells, transient transfection
T2 sequence (P24530 27-442): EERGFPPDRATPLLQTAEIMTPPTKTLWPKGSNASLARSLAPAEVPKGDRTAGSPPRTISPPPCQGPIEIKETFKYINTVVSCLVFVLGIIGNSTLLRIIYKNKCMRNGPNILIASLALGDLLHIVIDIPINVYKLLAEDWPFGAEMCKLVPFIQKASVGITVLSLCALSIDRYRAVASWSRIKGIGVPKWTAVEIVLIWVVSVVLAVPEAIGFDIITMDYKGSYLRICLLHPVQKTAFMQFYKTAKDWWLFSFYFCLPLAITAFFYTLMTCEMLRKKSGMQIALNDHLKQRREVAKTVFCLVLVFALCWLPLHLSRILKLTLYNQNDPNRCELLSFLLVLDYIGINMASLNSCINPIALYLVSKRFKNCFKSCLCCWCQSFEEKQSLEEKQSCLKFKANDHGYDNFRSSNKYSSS
Protocol: 293T-17 cells were seeded at a density of 650,000 cells per well in a 6-well plate and cultured overnight in an incubator at 37°C and 5% CO2. Afterward, the cells were transfected with an expression vector, PCDNA3.1-hETB which contained a human ETB receptor gene, at a plasmid concentration of 2.5 µg per well. The cells were further cultured for 48 hours, and green fluorescence expression was observed under a fluorescence microscope. The cells were then digested with trypsin and counted. The activity of compounds on the human ETB receptor was determined with the IP-One Gq kit from Cisbio Bioassays. The cells were suspended in Stim Buffer provided in the kit and the cell suspension was added to a 96-well detection plate at 7 µL cell suspension (containing 30,000 cells) per well. The polypeptides to be screened for activity (prepared according to the Preparation Example of the invention) and polypeptide IRL1620 as positive control were dissolved in Stim B to be at a concentration of 2×, and 7 µL was added to the test cells, while 7 µL of PBS solution was added to the cells in the negative control wells. IRL1620 was used as the positive control polypeptide. The plate was sealed and incubated at 37°C for 1 hour in a cell culture incubator. Test wells, positive control wells, and PBS control wells were each added with 3 µL of IP1 d2 working solution and 3 µL of IP1 Tb cryptotate Antibody working solution. The plate was then sealed and incubated in the dark at room temperature (25°C±5°C) for 1 hour. The plate seal was removed, and the […] at 665 nm and 620 nm was measured with an ID5 microplate reader. The ratio of the acceptor emission signal to the donor emission signal, i.e., the value of (signal at 665 nm/signal at 620 nm)×10^4, was calculated for each well. With F1 representing the average value of values of signal at 665 nm/signal at 620 nm determined for the test sample at a specific concentration, F2 representing the average value of values of signal at 665 nm/signal at 620 nm determined for the positive control IRL1620 at the same concentration, and T1 representing the average value of values of signal at 665 nm/signal at 620 nm determined for the PBS negative control, the percentage of activity of the test polypeptide sample relative to the positive control sample IRL1620 is equal to (F1-T1)×100/(F2-T1). hETB sequence (NCBI accession number NM_000115.5).

[2] = read-out: hETAR agonist activity, percentage of activity relative to ET1

Compound	hETBR agonist activity, percentage of activity relative to IRL1620 (human ETB receptor) [%@100nM]	hETBR agonist activity, percentage of activity relative to IRL1620 (human ETB receptor; @10nM) [%@10nM]	hETAR agonist activity, percentage of activity relative to ET1 (human ETA receptor) [%@100µM]	hETAR agonist activity, percentage of activity relative to ET1 (human ETA receptor; @10µM) [%@10µM]	also measured
CC[C@H](C)[C@H](NC(=O)[C@H](CC(=O)O)NC(=O)[C@H](CC(C)C)NC(=O)[C@H](Cc1c[nH]cn1)NC(=O)[C@H](C)NC(=O)[C@H](Cc1ccccc1)NC(=O)[C@H](Cc1ccc(O)cc1)NC(=O)[C@@H]1CSSC[C@H](NC(=O)[C@H](CCC(=O)O)NC(=O)[C@H](CC(=O)O)NC(=O)CCC(=O)O)C(=O)N[C@@H](CCC(=O)O)C(=O)N[C@@H](CCC(=O)O)C(=O)N1)C(=O)N[C@H](C(=O)N[C@@H](Cc1c[nH]c2ccccc12)C(=O)O)[C@@H](C)CC [BX-56] (Suc-DECEECYFAHLDIIW-OH; disulfide 3-6)					half-life [1]: 8.9 min; AUClast 0-30 min ([1]; i.v.): 1376 ng·h/mL
CCCCCCCCCCCCCCCCCC(=O)NCCOCCOCC(=O)NCCOCCOCC(=O)N[C@@H](CCC(=O)NCCCC[C@H](NC(=O)[C@H](Cc1c[nH]cn1)NC(=O)[C@H](C)NC(=O)[C@H](Cc1ccccc1)NC(=O)[C@H](Cc1ccc(O)cc1)NC(=O)[C@@H](NC(=O)[C@H](C)NC(=O)[C@H](CCC(=O)O)NC(=O)[C@H](CCC(=O)O)NC(=O)[C@H](CC(=O)O)NC(=O)/C=C/C(=O)O)C(C)C)C(=O)N[C@@H](CC(=O)O)C(=O)N[C@H](C(=O)N[C@H](C(=O)N[C@@H](Cc1c[nH]c2ccccc12)C(=O)O)[C@@H](C)CC)[C@@H](C)CC)C(=O)O [BX-69] (Fumaroyl-DEEAVYFAHK([γGlu-AEEA-AEEA-Stearoyl])DIIW-OH)					activation at 10 µM (human ETA receptor; [2]): 13.1%; activation at 100 µM (human ETA receptor; [2]): 11.5%; half-life [1]: 30 min; AUClast 0-30 min ([1]; i.v.): 1611 ng·h/mL; T1/2 ([1]; Table 1, mice, i.v.): T1/2=30min;
CC[C@H](C)[C@H](NC(=O)[C@H](CC(=O)O)NC(=O)[C@H](CCCCN)NC(=O)[C@H](Cc1c[nH]cn1)NC(=O)[C@H](C)NC(=O)[C@H](Cc1ccccc1)NC(=O)[C@H](Cc1ccc(O)cc1)NC(=O)[C@@H](NC(=O)[C@H](C)NC(=O)[C@H](CCC(=O)O)NC(=O)[C@H](CCC(=O)O)NC(=O)[C@H](CC(=O)O)NC(=O)/C=C/C(=O)O)C(C)C)C(=O)N[C@H](C(=O)N[C@@H](Cc1c[nH]c2ccccc12)C(=O)O)[C@@H](C)CC [F-BX-5] (Fumaroyl-DEEAVYFAHKDIIW-OH)					half-life [1]: < 3 min; AUClast 0-30 min ([1]; i.v.): 127 ng·h/mL
Fum-D cyclo(EEAK)YFAHK(-γE-AEEA-AEEA-ODDA)DVIW [BX-100]	15.03	18.79	9.52	-39.09	
Fum-D cyclo(EEAK)YFAHLD(2-Abu)IW [BX-64]	132.16	79.92	6.41	-13.52	
Fum-DEE cyclo(EVYFK)HKD(2-Abu)IW [BX-62]	129.39	99.31			hETAR agonist activity, percentage of activity relative to ET1 (human ETA receptor; @10nM): -17.37%@10nM; hETAR agonist activity, percentage of activity relative to ET1 (human ETA receptor; @100nM): -19.09%@100nM
Fum-DEEK(-γE-AEEA-AEEA-ODDA)VYFAHLDIIW (Fum-DEEK with lipidated linker N-terminal) [BX-66]	60.51	7.67	-0.94	13.13	
Suc-D cyclo(EEAK)YFAHK(-γE-AEEA-AEEA-ODDA)DIIW [BX-77]	4.69	-16.59	-6.32	-29.53	
Suc-D cyclo(EEAK)YFAHK(-γE-AEEA-AEEA-ODDA)DVIW [BX-79]	19.85	2.13	-12.17	-46.08	
Suc-D cyclo(EEAK)YFAHLD(2-Abu)IW [BX-63]	122.93	90.08	4.43	-15.24	
Suc-DEEAVYFAHK(-γE-AEEA-AEEA-ODDA)DVIW (Suc-DEEAVYFAHK([γGlu-AEEA-AEEA-C18 diacid])DVIW) [BX-78]	23.41	-14.2	-23.02	-6.06	
